Data on one compound can be found in patent publication US20250041282A1, “METHOD FOR TREATING INFLAMMATORY PULMONARY DISEASE” (FU JEN CATHOLIC UNIVERSITY, priority 2021, published 2025).

Test [1] relates to C57BL/6 mice with LPS-induced systemic inflammation. The experiment in a line: Serum cytokines by ELISA in mice with LPS-induced systemic inflammation. The test is classed as in vivo, mouse. To be noted: FJU-C28 5 mg/kg, LPS 7.5 mg/kg; FIG. 12B. How it is done:
RANTES (RayBiotech), IL-1β and IL-6 (eBioscience, San Diego, CA, USA) concentrations in cell culture media and mouse serum were measured using ELISA kits according to the manufacturer's instructions. The plates were measured at […] using an Epoch microplate spectrophotometer (BioTek Instruments, Winooski, VT, USA). The concentrations of RANTES, IL-1β and IL-6 in the samples were determined by standard curves.
Ten-week-old male C57BL/6 mice from BioLasco Taiwan Co., Ltd. (Taipei, Taiwan) were used in the present study. […] The detailed procedure was performed as described in a previous study.^34 The lung function values, including C chord (lung compliance), IC (inspiratory capacity), VC (vital capacity), FEV100 (forced expiratory volume at 100 ms) and FVC (forced vital capacity), were measured using a Buxco Research System. […]
To evaluate the protective effect of FJU-C28 on lung function in mice with systemic inflammation induced by endotoxin, male C57BL/6 mice were administered LPS (7.5 mg/kg) and treated with/without FJU-C28 (5 mg/kg) for 24 hours; subsequently, lung function parameters were measured using a Buxco pulmonary function test system. […] To ascertain the correlation between target cytokines and lung injury, serum cytokines were measured by ELISA.
A general note: An ELISA detects its analyte on a solid surface through an enzyme-linked reagent.

Test [2] relates to STAT3, smad3, TGF1β-induced alpha-SMA and fibronectin. As to the kind of experiment: Immunoblot comparison of FJU-C28 with Pirfenidone. The test is classed as cell-based. The conditions noted are these: versus Pirfenidone; FIGS. 10A-10C. As for the experimental part:
Further, a comparison between FJU-C28 and FDA-approved drug Pirfenidone for effects on STAT3 inhibition, smad3 activation, TGF1β-induced alpha-SMA and fibronectin expression are conducted. The results are shown in the quantitative immunoblot data in FIGS. 10A, 10B and 10C.

Test [3] relates to C57BL/6 mice with LPS-induced systemic inflammation. As to the kind of experiment: Lung function in mice with LPS-induced systemic inflammation (Buxco). The format is in vivo, mouse. The conditions noted are these: FJU-C28 5 mg/kg, LPS 7.5 mg/kg, 24 hours. How it is done: Ten-week-old male C57BL/6 mice from BioLasco Taiwan Co., Ltd. (Taipei, Taiwan) were used in the present study. The mice were maintained under standard laboratory conditions as described in a previous study.^34 All animal procedures were approved by the Institutional Animal Care and Use Committee of Fu Jen Catholic University (IACUC approval number: A10508). We also confirmed that all experiments were performed in compliance with the ARRIVE guidelines. All surgeries were performed under anesthesia, and all efforts were made to minimize the pain and discomfort of the animals. The mice were randomly assigned to three groups: control (n=7), LPS (n=7) and LPS plus C28 (n=8). The mice were injected with/without FJU-C28 (5 mg/kg) dissolved in DMSO/PBS buffer, and after one hour the mice were stimulated with an intraperitoneal injection of LPS (7.5 mg/kg) in PBS buffer. At 24 hours after LPS stimulation, the mice were anesthetized i.p. with a mixture of ketamine (100 mg/kg) (Pfizer, New York, US) and xylazine (10 mg/kg) (Bayer, Leverkusen, Germany), endotracheally intubated with an airway catheter and connected to a forced pulmonary maneuver system (Buxco Research System; Buxco Electronics, Wilmington, NC). The detailed procedure was performed as described in a previous study.^34 The lung function values, including C chord (lung compliance), IC (inspiratory capacity), VC (vital capacity), FEV100 (forced expiratory volume at 100 ms) and FVC (forced vital capacity), were measured using a Buxco Research System. After the lung function assays, the experimental mice were sacrificed, and blood was collected by cardiac puncture. The lung lobes were inflated with 4% buffered paraformaldehyde via a catheter. Slides of lung specimens at a thickness of 5 μm were stained with hematoxylin and eosin for light microscopic analysis.
To evaluate the protective effect of FJU-C28 on lung function in mice with systemic inflammation induced by endotoxin, male C57BL/6 mice were administered LPS (7.5 mg/kg) and treated with/without FJU-C28 (5 mg/kg) for 24 hours; subsequently, lung function parameters were measured using a Buxco pulmonary function test system. […] However, treatment with FJU-C28 restored the LPS-induced decreases in lung function including VC (p<0.05), C chord, FEV100 (p<0.05), and FVC (p<0.05), compared to those of LPS-treated mice (FIG. 11). To confirm the status of LPS-induced lung injury in mice, histological examination of lung specimens was performed by H&E staining. […] To ascertain the correlation between target cytokines and lung injury, serum cytokines were measured by ELISA.

For the compound `C=CCC1CC(Sc2ccccc2)=CC(=O)N1C(=O)C=C` (stereo not shown) [FJU-C28], in test [1], the “circulating (serum) level of IL-6” value was “significantly suppressed” and the “circulating (serum) level of RANTES” value is recorded as “significantly suppressed”. Also, in test [2], the “inhibition of STAT3” value is reported as “more significant than that of Pirfenidone”, the “inhibition of TGF1β-induced alpha-SMA expression” value is recorded as “more significant than that of Pirfenidone”, the “inhibition of TGF1β-induced fibronectin expression” value is given as “more significant than that of Pirfenidone” and the “inhibition of smad3” value is listed as “more significant than that of Pirfenidone”. In test [3] (p<0.05 vs LPS-treated mice), the “forced expiratory volume at 100 ms (FEV100)” value is recorded as “restored”, the “forced vital capacity (FVC)” value is “restored” and the “vital capacity (VC)” value is “restored”. Further, in test [3] (vs LPS-treated mice), the “lung compliance (C chord)” value is listed as “restored”.
